Columns and labels:
[1] = immediately following administration, under spontaneous circulation and during CPR; cited from earlier work
[2] = system: post-resuscitation left ventricular function and ventricular arrhythmias; experiment: Ventricular fibrillation cardiac arrest with precordial compression and defibrillation in pigs (Example 2); type: in vivo, Male domestic pigs; conditions: for resuscitation outcome: defibrillation attempted 4 min after drug
Procedure: Male domestic pigs weighing between 40 and 45 kg were fasted overnight except for free access to water. Anesthesia was initiated by intramuscular injection of ketamine (20 mg/kg) and completed by ear vein injection of sodium pentobarbital (30 mg/kg). Additional doses of sodium pentobarbital (8 mg/kg) were injected at intervals of 1 h to maintain anesthesia. A cuffed endotracheal tube was advanced into the trachea. Animals were mechanically ventilated with a volume-controlled ventilator (Model MA-1; Puritan-Bennett, Carlsbad, Calif.). End tidal PCO2 (PETCO2) was monitored with an infrared analyzer (Model 01R-7101A; Nihon Kohden Corp., Tokyo, Japan). Respiratory frequency was adjusted to maintain PETCO2 between 35 and 40 mm Hg.
For the measurement of left ventricular function, a 5-MHZ single plane with 5 MHZ continuous-wave Doppler transesophageal echocardiographic transducer with four-way flexure (Model 21363A; Hewlett-Packard Co., Medical Products Group, Andover Mass.) was advanced from the incisor teeth into the esophagus for a distance of approximately 35 cm. For the measurement of aortic pressure, a fluid-filled catheter was advanced from the left femoral artery into the thoracic aorta. For the measurement of right atrial pressure, pulmonary arterial pressures and blood temperature, a 7-F, pentalumen, thermodilation-tip catheter was advanced from the left femoral vein and flow directed into the pulmonary artery. For inducing ventricular fibrillation (VF), a 5-F pacing catheter (EP Technologies, Inc., Mountain View, Calif.) was advanced from the right cephalic vein into the right ventricle until an electrocardiographic current of injury was recorded.
Ventricular fibrillation (VF) was induced and untreated for 7 minutes. Precordial compression (PC) was then initiated. After 2 minutes of precordial compression, animals were randomized to receive either the selective α2-adrenergic agent, α-methylnorepinephrine (100 μg/kg; catalog number M133, Research Biochemicals International) or epinephrine (30 μg/kg). Defibrillation was attempted 4 min. later. […] A lower incidence of post-resuscitation ventricular arrhythmias was again observed with those animals receiving α-methylnorepinephrine.

[3] = system: post-resuscitation myocardial dysfunction, ventricular arrhythmias and survival; experiment: Ventricular fibrillation cardiac arrest with precordial compression and defibrillation in rats (Example 1); type: in vivo, Sprague-Dawley rats; conditions: for duration of post-resuscitation survival: VF untreated 8 min, drug after 2 min precordial compression, α-methylnorepinephrine 100 μg/kg, epinephrine 30 μg/kg, FIG. 4; for resuscitation outcome: defibrillation attempted 4 min after drug
Procedure: Sprague-Dawley rats (450-570 g) were fasted overnight except for free access to water. The animals were anesthetized by intraperitoneal injection of 45 mg/kg pentobarbital sodium supplemented with additional doses of 10 mg/kg at hourly intervals, except that no pentobarbital was administered for 30 minutes before induction of cardiac arrest. The trachea was orally intubated with a 14-gauge cannula (Quick-Cath, Vicra division, Travenol Laboratory) mounted on a blunt needle with a 145° angled tip. For measurement of the partial pressure of carbon dioxide in the endotracheum (PETCO2), the respiratory gas was sampled through a side manifold interposed between the tracheal cannula and the respirator. The PCO2 was measured with a side-stream infrared CO2 analyzer (model 200, Instrumentation Laboratories). For measurement of left ventricular pressure, and both dP/dt40 (the rate of left ventricular pressure increase measured at a left ventricular pressure of 40 mm Hg, an indicator of isovolemic contractility) and negative dP/dt (the rate of left ventricular pressure decline, a measure of myocardial relaxation), a Teflon catheter (UTX 022; internal diameter, 0.6 mm; outer diameter, 0.97 mm; length 8 cm; Becton Dickinson) was advanced into the left ventricle from the right carotid artery. […] Guided by pressure monitoring, the catheter was slowly withdrawn into the right atrium. Right atrial pressure was measured with reference to the midchest with a high-sensitivity transducer (P-23-9b, Spectramed). This catheter was also used to sample blood from the right atrium. Through the right external jugular vein, a 3F pediatric radial artery catheter (model C-PUM-301J, Cook) was advanced into the right atrium. A precurved guide wire supplied with the catheter was then advanced through the catheter into the right ventricle until an endocardial ECG was observed. Through the right femoral artery, a Teflon catheter (UTX 022, Becton Dickinson) was advanced into the thoracic aorta for measurement of aortic pressure with a model TNF-R transducer (Abbott Critical Care). […] Rectal temperature was measured continuously with a rectal thermistor. Conventional lead II ECGs were recorded with skin electrodes (model E220, In-vivo Metric).
Ventricular fibrillation (VF) was induced and untreated for 8 minutes. Precordial compression (PC) was then initiated. After 2 minutes of precordial compression, animals were randomized to receive either the selective α2-adrenergic agent, α-methylnorepinephrine (100 μg/kg; catalog number M133, Research Biochemicals International; abbreviated “α-methylnorepi.”), epinephrine (30 μg/kg; abbreviated “epi.”) or saline placebo. Defibrillation (DF) was attempted 4 min. later. […] Baseline (BL) or control values are shown at the left of the figures.

[4] = compared with epinephrine; cited from earlier work

CNC[C@H](O)c1ccc(O)c(O)c1 [epinephrine]
decrease of end tidal CO2 (ETCO2) [1]: 50%
resuscitation outcome [2]: successfully resuscitated
duration of post-resuscitation survival [3]: 19 h
resuscitation outcome [3]: successfully resuscitated

COc1ccc(OC)c(C(O)C(C)N)c1 (centres unmarked) [methoxamine]
effectiveness for restoring spontaneous circulation [4]: as effective as epinephrine

CNC[C@H](O)c1cccc(O)c1 [phenylephrine]
effectiveness for restoring spontaneous circulation [4]: as effective as epinephrine

CC(N)[C@H](O)c1ccc(O)c(O)c1 (stereo partly drawn) [α-methylnorepinephrine, α-(1-aminoethyl),3,4-dihydroxybenzyl alcohol]
post-resuscitation left ventricular stroke volume ([2]; 100 μg/kg vs epinephrine 30 μg/kg, transesophageal echo-Doppler, FIG. 5): markedly improved
post-resuscitation ejection fraction ([2]; 100 μg/kg vs epinephrine 30 μg/kg, transesophageal echo-Doppler, FIG. 6): markedly improved
post-resuscitation cardiac output ([2]; 100 μg/kg vs epinephrine 30 μg/kg, transesophageal echo-Doppler, FIG. 7): markedly improved
incidence of post-resuscitation ventricular arrhythmias ([2]; VF untreated 7 min, α-methylnorepinephrine 100 μg/kg vs epinephrine 30 μg/kg): lower
resuscitation outcome [2]: successfully resuscitated
post-resuscitation myocardial dysfunction as measured by dp/dt40 ([3]; 100 μg/kg, vs epinephrine or saline placebo, FIG. 1): significantly less severe
post-resuscitation myocardial dysfunction as measured by negative dP/dt ([3]; 100 μg/kg, vs epinephrine or saline placebo, FIG. 2): significantly less severe
post-resuscitation myocardial dysfunction as measured by cardiac index (CI) ([3]; 100 μg/kg, vs epinephrine or saline placebo, FIG. 3): significantly less severe
duration of post-resuscitation survival [3]: 72 h
resuscitation outcome [3]: successfully resuscitated
incidence of post-resuscitation ventricular arrhythmias ([3]; α-methylnorepinephrine 100 μg/kg vs epinephrine 30 μg/kg or saline placebo): significantly lower

Reference: patent publication US6369114B1, “Administration of an α2-adrenergic receptor agonist to enhance cardiopulmonary resuscitation” (Institute of Critical Care Medicine, priority 1999, dated 2002)
